The record followed here is patent US8906889B2, “C-3 cycloalkenyl triterpenoids with HIV maturation inhibitory activity” (priority 2012, dated 2014).

Structures are written as SMILES. Counter-ions that a name gives are not always drawn.

This assay concerns recombinant NL4-3 virus (Renilla luciferase, Gag P373S). The assay is described as follows: HIV cell culture assay (luciferase reporter, MT-2 cells). The assay is classed as cell-based. Conditions: Renilla, NL43, MT-2 cells infected for 4-5 days with NLRluc recombinants; luciferase activity. On the procedure: MT-2 cells and 293T cells were obtained from the NIH AIDS Research and Reference Reagent Program. MT-2 cells were propagated in RPMI 1640 media supplemented with 10% heat inactivated fetal bovine serum, […]. The 293T cells were propagated in DMEM media supplemented with 10% heat inactivated fetal bovine serum (FBS), 100 units/ml penicillin G and 100 μg/ml streptomycin. The proviral DNA clone of NL4-3 was obtained from the NIH AIDS Research and Reference Reagent Program. A recombinant NL4-3 virus, in which a section of the nef gene from NL4-3 was replaced with the Renilla luciferase gene, was used as a reference virus. In addition, residue Gag P373 was converted to P373S. Briefly, the recombinant virus was prepared by transfection of the altered proviral clone of NL4-3. Transfections were performed in 293T cells using LipofectAMINE PLUS from Invitrogen (Carlsbad, Calif.), according to manufacturer's instruction. The virus was titered in MT-2 cells using luciferase enzyme activity as a marker. Luciferase was quantitated using the Dual Luciferase kit from Promega (Madison, Wis.), with modifications to the manufacturer's protocol. The diluted Passive Lysis solution was pre-mixed with the re-suspended Luciferase Assay Reagent and the re-suspended Stop & Glo Substrate (2:1:1 ratio). Fifty (50) μL of the mixture was added to each aspirated well on assay plates and luciferase activity was measured immediately on a Wallac TriLux (Perkin-Elmer). Antiviral activities of inhibitors toward the recombinant virus were quantified by measuring luciferase activity in cells infected for 4-5 days with NLRluc recombinants in the presence serial dilutions of the inhibitor.
Take `C=C(C)[C@@H]1CC[C@]2(NCCN3CCC(S(C)(=O)=O)CC3)CC[C@]3(C)[C@H](CC[C@@H]4[C@@]5(C)CC=C(C6=CC[C@@H](C(=O)O)CC6)C(C)(C)[C@@H]5CC[C@]43C)[C@@H]12` [Example 16, (S)-4-((1R,3aS,5aR,5bR,7aR,11aS,11bR,13aR,13bR)-5a,5b,8,8,11a-pentamethyl-3a-((2-(4-(methylsulfonyl)piperidin-1-yl)ethyl)amino)-1-(prop-1-en-2-yl)-2,3,3a,4,5,5a,5b,6,7,7a,8,11,11a,11b,12,13,13a,13b-octadecahydro-1H-cyclopenta[a]chrysen-9-yl)cyclohex-3-enecarboxylic acid, TFA]: the EC50 amounted to 3.05 nM. Take `C=C(C)[C@@H]1CC[C@]2(N)CC[C@]3(C)[C@H](CC[C@@H]4[C@@]5(C)CC=C(C6=CCC(C(=O)O)CC6)C(C)(C)[C@@H]5CC[C@]43C)[C@@H]12` (stereo partly drawn) [Example 17, 4-((1R,3aS,5aR,5bR,7aR,11aS,11bR,13aR,13bR)-3a-amino-5a,5b,8,8,11a-pentamethyl-1-(prop-1-en-2-yl)-2,3,3a,4,5,5a,5b,6,7,7a,8,11,11a,11b,12,13,13a,13b-octadecahydro-1H-cyclopenta[a]chrysen-9-yl)cyclohex-3-enecarboxylic acid, HCl]: the EC50 was determined as 0.877 nM.

With `C=C(C)[C@@H]1CC[C@]2(NCCO)CC[C@]3(C)[C@H](CC[C@@H]4[C@@]5(C)CC=C(C6=CCC(C(=O)O)CC6)C(C)(C)[C@@H]5CC[C@]43C)[C@@H]12` (stereo partly drawn) [Example 18, 4-((1R,3aS,5aR,5bR,7aR,11aS,11bR,13aR,13bR)-3a-((2-hydroxyethyl)amino)-5a,5b,8,8,11a-pentamethyl-1-(prop-1-en-2-yl)-2,3,3a,4,5,5a,5b,6,7,7a,8,11,11a,11b,12,13,13a,13b-octadecahydro-1H-cyclopenta[a]chrysen-9-yl)cyclohex-3-enecarboxylic acid, TFA], the EC50 stood at 1.38 nM.

On to `C=C(C)[C@@H]1CC[C@]2(NCCO)CC[C@]3(C)[C@H](CC[C@@H]4[C@@]5(C)CC=C(C6=CC[C@H](C(=O)O)CC6)C(C)(C)[C@@H]5CC[C@]43C)[C@@H]12` [Example 19, (R)-4-((1R,3aS,5aR,5bR,7aR,11aS,11bR,13aR,13bR)-3a-((2-hydroxyethyl)amino)-5a,5b,8,8,11a-pentamethyl-1-(prop-1-en-2-yl)-2,3,3a,4,5,5a,5b,6,7,7a,8,11,11a,11b,12,13,13a,13b-octadecahydro-1H-cyclopenta[a]chrysen-9-yl)cyclohex-3-enecarboxylic acid, TFA], for which the half-maximal effective concentration (EC50) worked out at 1.14 nM. Consider `C=C(C)[C@@H]1CC[C@]2(NCCO)CC[C@]3(C)[C@H](CC[C@@H]4[C@@]5(C)CC=C(C6=CC[C@@H](C(=O)O)CC6)C(C)(C)[C@@H]5CC[C@]43C)[C@@H]12` [Example 20, (S)-4-((1R,3aS,5aR,5bR,7aR,11aS,11bR,13aR,13bR)-3a-((2-hydroxyethyl)amino)-5a,5b,8,8,11a-pentamethyl-1-(prop-1-en-2-yl)-2,3,3a,4,5,5a,5b,6,7,7a,8,11,11a,11b,12,13,13a,13b-octadecahydro-1H-cyclopenta[a]chrysen-9-yl)cyclohex-3-enecarboxylic acid, TFA], for which the EC50 stood at 1.57 nM. `C=C(C)[C@@H]1CC[C@]2(NCCN3CCS(=O)(=O)CC3)CC[C@]3(C)[C@H](CC[C@@H]4[C@@]5(C)CC=C(C6=CCC(C(=O)NS(C)(=O)=O)CC6)C(C)(C)[C@@H]5CC[C@]43C)[C@@H]12` (stereo partly drawn) [Example 21, 4-((1R,3aS,5aR,5bR,7aR,11aS,11bR,13aR,13bR)-3a-((2-(1,1-dioxidothiomorpholino)ethyl)amino)-5a,5b,8,8,11a-pentamethyl-1-(prop-1-en-2-yl)-2,3,3a,4,5,5a,5b,6,7,7a,8,11,11a,11b,12,13,13a,13b-octadecahydro-1H-cyclopenta[a]chrysen-9-yl)-N-(methylsulfonyl)cyclohex-3-enecarboxamide, TFA]: the EC50 amounted to 1.8 nM. As for `C=C(C)[C@@H]1CC[C@]2(NC(=O)OC(C)(C)C)CC[C@]3(C)[C@H](CC[C@@H]4[C@@]5(C)CC=C(C6=CC7(C6)CC(C(=O)O)(C(=O)O)C7)C(C)(C)[C@@H]5CC[C@]43C)[C@@H]12` [Example A1, 6-((1R,3aS,5aR,5bR,7aR,11aS,11bR,13aR,13bR)-3a-((tert-butoxycarbonyl)amino)-5a,5b,8,8,11a-pentamethyl-1-(prop-1-en-2-yl)-2,3,3a,4,5,5a,5b,6,7,7a,8,11,11a,11b,12,13,13a,13b-octadecahydro-1H-cyclopenta[a]chrysen-9-yl)spiro[3.3]hept-5-ene-2,2-dicarboxylic acid], the EC50 came out at 570 nM. As for `C=C(C)[C@@H]1CC[C@]2(NCCN(c3ccccc3)S(=O)(=O)C(F)(F)F)CC[C@]3(C)[C@H](CC[C@@H]4[C@@]5(C)CC=C(C6=CC7(C6)CC(C(=O)O)(C(=O)O)C7)C(C)(C)[C@@H]5CC[C@]43C)[C@@H]12` [Example A2, 6-((1R,3aS,5aR,5bR,7aR,11aS,11bR,13aR,13bR)-5a,5b,8,8,11a-pentamethyl-1-(prop-1-en-2-yl)-3a-((2-(1,1,1-trifluoro-N-phenylmethylsulfonamido)ethyl)amino)-2,3,3a,4,5,5a,5b,6,7,7a,8,11,11a,11b,12,13,13a,13b-octadecahydro-1H-cyclopenta[a]chrysen-9-yl)spiro[3.3]hept-5-ene-2,2-dicarboxylic acid], the figure is 1070 nM. On to `C=C(C)[C@@H]1CC[C@]2(NCCN(c3ccc(Cl)cn3)S(=O)(=O)C(F)(F)F)CC[C@]3(C)[C@H](CC[C@@H]4[C@@]5(C)CC=C(C6=CC7(C6)CC(C(=O)O)(C(=O)O)C7)C(C)(C)[C@@H]5CC[C@]43C)[C@@H]12` [Example A3, 6-((1R,3 aS,5aR,5bR,7aR,11aS,11bR,13 aR,13bR)-3a-((2-(N-(5-chloropyridin-2-yl)-1,1,1-trifluoromethylsulfonamido)ethyl)amino)-5a,5b,8,8,11a-pentamethyl-1-(prop-1-en-2-yl)-2,3,3a,4,5,5a,5b,6,7,7a,8,11,11a,11b,12,13,13a,13b-octadecahydro-1H-cyclopenta[a]chrysen-9-yl)spiro[3.3]hept-5-ene-2,2-dicarboxylic acid], for which the EC50 is 1750 nM. As for `C=C(C)[C@@H]1CC[C@]2(NCCN3CCOCC3)CC[C@]3(C)[C@H](CC[C@@H]4[C@@]5(C)CC=C(C6=CC7(C6)CC(C(=O)O)(C(=O)O)C7)C(C)(C)[C@@H]5CC[C@]43C)[C@@H]12` [Example A4, 6-((1R,3aS,5aR,5bR,7aR,11aS,11bR,13aR,13bR)-5a,5b,8,8,11a-pentamethyl-3a-((2-morpholinoethyl)amino)-1-(prop-1-en-2-yl)-2,3,3a,4,5,5a,5b,6,7,7a,8,11,11a,11b,12,13,13a,13b-octadecahydro-1H-cyclopenta[a]chrysen-9-yl)spiro[3.3]hept-5-ene-2,2-dicarboxylic acid], the EC50 turned out to be 100 nM.
